Experimental data as given in PMC5500234 (Chemistry (Weinheim an der Bergstrasse, Germany), 2016).

Target: LeuT (bacterial leucine transporter) (Aquifex aeolicus, UniProt O67854)
Test: scintillation proximity assay
Type: binding
Details: labelled compound; room temperature, […] days; DDM or MNA-C12/C13/C14

For `CC(C)C[C@H](N)C(=O)O` [[3H]-leucine], the “scintillation proximity assay (SPA), radioligand binding” value was “measuring the ability to bind [^3H]-leucine via scintillation proximity assay (SPA)”.
